# Measured values: paper PMC8445847 (iScience, 2021)
# pIC50: −log10 of the molar value. Read-outs that look alike come from different tables or passages of the source.
# Columns and labels:
# JeKo-1 cells [1] = assay: Annexin V/propidium iodide apoptosis assay; type: cell-based, human; conditions: up to 5 μM, 24 h, Annexin V/PI
# JeKo-1 cells [2] = assay: Alamar Blue cell viability assay; type: cell-based, human; conditions: read-out: antiproliferative IC50 JeKo-1
# [3] = system: pPLCγ2(Y759) in JeKo-1 cells; assay: Western blot of IgM-stimulated cells; type: cell-based, human; conditions: IgM-stimulated JeKo-1 cells, 1 hr
# JeKo-1 and Mino cells = assay: apoptosis after drug washout; type: cell-based, human; conditions: 5 μM, treated 4 or 8 h, analyzed 16 or 20 h post washout
# [4] = relapsed-refractory MCL; ref Byrd et al., 2013; Sarkozy and Ribrag, 2020; cited from earlier work
# Mino cells [5] = assay: Annexin V/propidium iodide apoptosis assay; type: cell-based, human; conditions: up to 5 μM, 24 h, Annexin V/PI
# [6] = system: Ibrutinib-resistant Granta cells; assay: Alamar Blue cell viability assay; type: cell-based; conditions: Homo sapiens, 48 h, read-out: antiproliferative IC50 Granta
# Z-138 cells = assay: Annexin V/propidium iodide apoptosis assay; type: cell-based, human; conditions: up to 5 μM, 24 h, Annexin V/PI
# Mino cells [7] = assay: Alamar Blue cell viability assay; type: cell-based, human; conditions: 48 h, read-out: antiproliferative IC50 Mino
# [8] = system: BRD4 occupancy at the cMYC promoter in JeKo-1 cells; assay: BRD4 ChIP assay at the cMYC promoter; type: cell-based, human; conditions: 1 μM, 24 h
# JeKo-1 BTK-WT cells = assay: cell viability assay, engineered BTK cell lines; type: cell-based, human
# JeKo-1 cells [9] = assay: cell cycle analysis; type: cell-based, human; conditions: JeKo-1, 1–5 μM, 24 h
# [10] = system: cMYC protein in Jeko-1 and Mino cells; assay: Western blot of cMYC; type: cell-based, human
# [11] = system: pBTK(Y223) and pAKT(S473) in Mino cells; assay: Western blot of IgM-stimulated cells; type: cell-based, human; conditions: 1 hr
# BRD4 BD1 [12] = target: BRD4 BD1 (Homo sapiens, UniProt O60885); assay: Alpha Screen assay against tetra-acetylated histone H4 peptide; type: binding; conditions: read-out: IC50 BRD4 BD1
# PI3Kδ = PI3Kδ (Homo sapiens, UniProt O00329); assay: in vitro kinase assay; type: biochemical; conditions: read-out: IC50 PI3Kδ
# BRD4 BD2 [13] = assay: NMR titration; type: binding; conditions: 15N-labeled protein, PBS pH 6.8
# Mino BTK-C481S cells = assay: cell viability assay, engineered BTK cell lines; type: cell-based, human; conditions: read-out: IC50 Mino BTK-C481S; 48 h, Ibrutinib-resistant BTK-C481S
# Mino BTK-WT cells = assay: cell viability assay, engineered BTK cell lines; type: cell-based, human; conditions: read-out: IC50 Mino BTK-WT; 48 h
# BRD4 BD2 [14] = target: BRD4 BD2 (Homo sapiens, UniProt O60885); assay: Alpha Screen assay against tetra-acetylated histone H4 peptide; type: binding; conditions: read-out: IC50 BRD4 BD2
# [15] = system: JeKo-1 chronic Ibrutinib-resistant cell line; assay: Cell titer Glow viability assay; type: cell-based, human
# [16] = system: JeKo-1 BTK-WT, JeKo-1 BTK-C481S and Mino BTK-C481S cells; conditions: up to 5 μM
# [17] = system: BTK and AKT phosphorylation in Mino cells; assay: inhibitor washout assay; conditions: 1 h treatment, 24 h post washout
# JeKo-1 MCL tumors = assay: JeKo-1 MCL xenograft tumor model; type: in vivo; conditions: 60 mg/kg daily by oral gavage; SRX3262 vs Ibrutinib-treated mice
# JeKo-1 BTK-C481S cells = assay: cell viability assay, engineered BTK cell lines; type: cell-based, human; conditions: read-out: IC50 JeKo-1 BTK-C481S; 48 h, Ibrutinib-resistant BTK-C481S
# PI3Kα = PI3Kα (Homo sapiens, UniProt P42336); assay: in vitro kinase assay; type: biochemical; conditions: read-out: IC50 PI3Kα
# [18] = system: cMYC, BCL2 and HEXIM1 expression in JeKo-1 and Mino cells; assay: qRT-PCR of BRD4 target genes; type: cell-based, human; conditions: 1 and 2.5 μM, 24 hr
# BTK = BTK (Homo sapiens, UniProt Q06187); assay: in vitro kinase assay; type: biochemical; conditions: read-out: IC50 BTK
# BRD4 BD1 [19] = assay: NMR titration; type: binding; conditions: 15N-labeled protein, PBS pH 6.8
# Sequence of PI3Kα (P42336 whole entry): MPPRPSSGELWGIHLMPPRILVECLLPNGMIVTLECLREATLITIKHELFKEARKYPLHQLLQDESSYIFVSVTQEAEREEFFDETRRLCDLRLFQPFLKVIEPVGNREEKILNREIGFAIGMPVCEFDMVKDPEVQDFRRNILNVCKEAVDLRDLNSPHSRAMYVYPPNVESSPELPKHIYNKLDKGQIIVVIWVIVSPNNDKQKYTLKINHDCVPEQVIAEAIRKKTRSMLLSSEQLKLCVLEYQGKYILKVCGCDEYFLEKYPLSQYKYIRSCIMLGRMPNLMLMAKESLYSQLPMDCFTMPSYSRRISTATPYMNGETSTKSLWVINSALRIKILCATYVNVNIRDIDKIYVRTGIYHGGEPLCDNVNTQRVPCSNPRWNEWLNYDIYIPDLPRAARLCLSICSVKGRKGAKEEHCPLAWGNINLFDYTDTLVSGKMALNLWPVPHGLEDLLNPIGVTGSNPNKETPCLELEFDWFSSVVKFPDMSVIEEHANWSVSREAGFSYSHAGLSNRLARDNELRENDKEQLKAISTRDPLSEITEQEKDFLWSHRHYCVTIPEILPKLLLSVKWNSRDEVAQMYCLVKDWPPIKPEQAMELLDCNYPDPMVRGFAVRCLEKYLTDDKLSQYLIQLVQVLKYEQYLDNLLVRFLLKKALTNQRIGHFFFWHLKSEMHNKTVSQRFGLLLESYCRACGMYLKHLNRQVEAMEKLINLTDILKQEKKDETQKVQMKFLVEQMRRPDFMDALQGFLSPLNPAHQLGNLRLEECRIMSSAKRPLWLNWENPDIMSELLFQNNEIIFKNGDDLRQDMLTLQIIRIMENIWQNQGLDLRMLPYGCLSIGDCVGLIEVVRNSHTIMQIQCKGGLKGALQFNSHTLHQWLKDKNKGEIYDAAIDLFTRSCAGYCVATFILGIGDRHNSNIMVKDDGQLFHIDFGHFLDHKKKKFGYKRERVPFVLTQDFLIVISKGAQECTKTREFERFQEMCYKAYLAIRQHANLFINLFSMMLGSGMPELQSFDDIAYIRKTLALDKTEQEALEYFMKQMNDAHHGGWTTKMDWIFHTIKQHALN
# Sequence of PI3Kα (P27986 whole entry partner): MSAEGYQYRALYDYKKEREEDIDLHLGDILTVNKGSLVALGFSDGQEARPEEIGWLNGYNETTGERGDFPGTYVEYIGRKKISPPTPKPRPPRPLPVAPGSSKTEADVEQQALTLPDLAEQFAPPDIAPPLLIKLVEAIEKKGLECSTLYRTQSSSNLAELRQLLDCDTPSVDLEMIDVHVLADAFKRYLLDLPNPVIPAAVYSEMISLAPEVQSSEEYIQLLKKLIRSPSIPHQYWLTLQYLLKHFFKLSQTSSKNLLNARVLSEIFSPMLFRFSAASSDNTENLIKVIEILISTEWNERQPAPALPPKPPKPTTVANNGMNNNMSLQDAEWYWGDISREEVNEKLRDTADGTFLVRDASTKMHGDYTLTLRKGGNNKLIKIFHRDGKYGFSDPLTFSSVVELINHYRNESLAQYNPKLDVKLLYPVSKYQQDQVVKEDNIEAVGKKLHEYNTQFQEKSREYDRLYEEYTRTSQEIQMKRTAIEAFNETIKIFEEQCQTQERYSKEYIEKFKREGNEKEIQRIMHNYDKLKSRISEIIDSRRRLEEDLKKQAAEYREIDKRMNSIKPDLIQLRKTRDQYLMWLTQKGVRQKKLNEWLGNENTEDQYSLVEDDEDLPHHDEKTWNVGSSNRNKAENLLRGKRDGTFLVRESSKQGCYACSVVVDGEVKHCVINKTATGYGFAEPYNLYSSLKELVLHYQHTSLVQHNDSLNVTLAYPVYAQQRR
# Sequence of PI3Kδ (O00329 whole entry): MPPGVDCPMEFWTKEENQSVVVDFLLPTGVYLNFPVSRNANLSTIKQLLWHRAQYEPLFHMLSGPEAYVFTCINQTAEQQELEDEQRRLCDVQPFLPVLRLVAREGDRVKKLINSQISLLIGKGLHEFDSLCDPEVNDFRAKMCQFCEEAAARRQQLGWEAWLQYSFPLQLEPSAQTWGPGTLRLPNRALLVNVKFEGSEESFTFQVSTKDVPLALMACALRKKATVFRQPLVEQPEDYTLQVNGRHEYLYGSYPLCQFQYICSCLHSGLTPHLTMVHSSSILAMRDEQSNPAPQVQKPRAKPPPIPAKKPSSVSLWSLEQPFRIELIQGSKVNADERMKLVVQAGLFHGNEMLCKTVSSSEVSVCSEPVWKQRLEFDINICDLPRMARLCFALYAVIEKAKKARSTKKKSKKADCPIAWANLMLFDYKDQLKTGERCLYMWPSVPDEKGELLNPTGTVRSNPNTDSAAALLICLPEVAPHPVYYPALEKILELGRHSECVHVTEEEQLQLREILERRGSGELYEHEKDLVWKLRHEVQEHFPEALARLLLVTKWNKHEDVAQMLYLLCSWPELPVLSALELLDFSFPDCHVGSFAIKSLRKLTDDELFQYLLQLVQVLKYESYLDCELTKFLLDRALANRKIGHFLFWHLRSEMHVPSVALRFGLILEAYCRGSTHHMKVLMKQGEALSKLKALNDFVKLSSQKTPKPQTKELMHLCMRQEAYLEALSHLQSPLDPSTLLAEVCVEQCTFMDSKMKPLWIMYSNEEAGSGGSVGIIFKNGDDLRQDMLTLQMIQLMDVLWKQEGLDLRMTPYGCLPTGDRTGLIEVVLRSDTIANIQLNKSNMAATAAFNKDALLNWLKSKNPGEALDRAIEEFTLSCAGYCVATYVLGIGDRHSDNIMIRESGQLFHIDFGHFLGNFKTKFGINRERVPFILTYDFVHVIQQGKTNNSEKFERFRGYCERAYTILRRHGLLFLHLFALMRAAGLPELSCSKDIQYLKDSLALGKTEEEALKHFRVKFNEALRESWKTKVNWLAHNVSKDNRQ
# Sequence of PI3Kδ (P27986 whole entry partner): as the sequence (P27986 whole entry partner) above
# Sequence of BTK (Q06187 whole entry): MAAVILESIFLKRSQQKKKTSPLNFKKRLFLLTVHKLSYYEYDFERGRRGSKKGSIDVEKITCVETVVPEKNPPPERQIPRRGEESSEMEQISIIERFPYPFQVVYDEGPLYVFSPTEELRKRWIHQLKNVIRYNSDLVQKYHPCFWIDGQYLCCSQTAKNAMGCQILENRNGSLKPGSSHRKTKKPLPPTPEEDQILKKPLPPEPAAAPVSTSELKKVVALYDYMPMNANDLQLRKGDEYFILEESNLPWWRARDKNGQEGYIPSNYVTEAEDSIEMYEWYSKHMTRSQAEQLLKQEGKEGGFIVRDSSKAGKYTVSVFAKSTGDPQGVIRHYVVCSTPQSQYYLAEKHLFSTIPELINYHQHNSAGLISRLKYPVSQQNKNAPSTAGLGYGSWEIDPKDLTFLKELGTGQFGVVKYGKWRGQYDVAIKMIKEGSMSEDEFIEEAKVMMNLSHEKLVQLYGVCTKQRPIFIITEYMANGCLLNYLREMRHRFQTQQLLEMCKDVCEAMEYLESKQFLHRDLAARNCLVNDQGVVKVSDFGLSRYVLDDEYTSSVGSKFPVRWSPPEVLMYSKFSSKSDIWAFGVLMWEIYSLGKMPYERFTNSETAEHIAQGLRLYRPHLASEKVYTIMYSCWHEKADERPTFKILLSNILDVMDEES
smiles,measurement,setting,value
"C=CC(=O)N1CCC[C@@H](n2nc(-c3ccc(Oc4ccccc4)cc3)c3c(N)ncnc32)C1 [Ibrutinib, reference compound]",apoptosis JeKo-1,JeKo-1 cells [1],no effect
same,pIC50,"JeKo-1 cells [2]; Homo sapiens, JeKo-1, 48 h",5.10
same,phosphorylation of PLCγ2,[3],inhibited phosphorylation of PLCγ2
same,cells undergoing apoptosis after drug washout,JeKo-1 and Mino cells,20–30%
same,complete response,[4],23%
same,objective response rate,[4],68%
same,apoptosis Mino,Mino cells [5],mild effect
same,pIC50,[6],4.70
same,apoptosis Z-138,Z-138 cells,mild effect
same,pIC50,"Mino cells [7]; Homo sapiens, MINO",5.19
"Cc1sc2c(c1C)C(c1ccc(Cl)cc1)=N[C@@H](CC(=O)OC(C)(C)C)c1nnc(C)n1-2 [JQ1, reference compound]",BRD4 localization at the cMYC promoter site,[8],decreased
C=CC(=O)N1CCOc2ccc(-c3csc4c(=O)cc(N5CCOCC5)oc34)cc21 [SRX3262],times more effective than Ibrutinib,JeKo-1 BTK-WT cells; both JeKo-1 BTK-WT and JeKo-1 BTK-C481S cells,20–27 times
same,pIC50,"JeKo-1 BTK-WT cells; read-out: IC50 JeKo-1 BTK-WT, 48 h",6.26
same,cell cycle arrest,JeKo-1 cells [9],induced G2 phase cell cycle arrest
same,cMYC protein level,[10],decreased the cMYC protein level
same,BRD4 localization at the cMYC promoter site,[8],decreased
same,apoptosis JeKo-1,JeKo-1 cells [1],dramatically increased apoptosis
same,phosphorylation of S473 in AKT,[11],inhibited phosphorylation
same,phosphorylation of Y223 in BTK,[11],inhibited phosphorylation
same,pIC50,BRD4 BD1 [12],6.64
same,pIC50,PI3Kδ,7.80
same,binding to BRD4 BD2 (chemical shift perturbations),BRD4 BD2 [13],binds to both BD1 and BD2
same,pIC50,Mino BTK-C481S cells,6.42
same,pIC50,"JeKo-1 cells [2]; Alamar Blue, 48 h",6.21
same,pIC50,Mino BTK-WT cells,6.16
same,phosphorylation of PLCγ2,[3],inhibited phosphorylation of PLCγ2
same,cells undergoing apoptosis after drug washout,JeKo-1 and Mino cells,40–70%
same,apoptosis Mino,Mino cells [5],dramatically increased apoptosis
same,pIC50,BRD4 BD2 [14],6.46
same,decrease in cell viability compared to Ibrutinib,[15],3–6 times
same,apoptosis in BTK-WT and Ibrutinib-resistant BTK-C481S cells,[16],increase in apoptotic cell death
same,AKT phosphorylation after inhibitor washout,[17],sustained inhibition of AKT phosphorylation
same,apoptosis Z-138,Z-138 cells,dramatically increased apoptosis
same,pIC50,Mino cells [7]; Alamar Blue,6.89
same,body weight,JeKo-1 MCL tumors,did not observe any notable changes in body weight
same,pIC50,JeKo-1 BTK-C481S cells,6.14
same,pIC50,PI3Kα,7.19
same,expression of HEXIM1,[18],increase of expression of HEXIM1
same,expression of cMYC and BCL2,[18],decrease of expression
same,pIC50,BTK,7.46
same,binding to BRD4 BD1 (chemical shift perturbations),BRD4 BD1 [19],binds to both BD1 and BD2
